Measured values: patent publication US7825226B2, “Glycoprotein synthesis” (The Scripps Research Institute, priority 2002, dated 2010)

Legend:
[1] = tested on: E. coli DH10B cells; assay: growth rate of cells grown with the unnatural amino acid; conditions: 1 mM; cells transformed with mutRNACUA^Tyr, LW1RS and Z domain gene (Lys7TAG)
Protocol: E. coli DH10B cells cotransformed with pLEIZ and pBK-LW1RS were grown in minimal media containing 1% glycerol and 0.3 mM leucine (GMML media) with 25 μg/mL kanamycin, 34 μg/mL of chloramphenicol, and 1.0 mM p-acetyl-(±)-phenylalanine.
Cells transformed with the mutRNACUA^Tyr, LW1RS and Z domain gene (Lys7TAG) were grown in the presence of 1 mM p-acetyl-(±)-phenylalanine.

[2] = tested on: Bandeiraea simplicifolia II (BSII); assay: ELISA-like assay of binding of a GlcNAc-specific lectin; conditions: 200 ng immobilized protein, absorbance at 405 nm
Protocol: Several additional experiments were performed to further characterize the mutant myoglobin. First, an ELISA-like assay was used to analyze the binding of a GlcNAc-specific lectin, Bandeiraea simplicifolia II (BSII) (see, e.g., S. Ebisu, et al., (1978), Carbohydr. Res. 61:129), to wild-type myoglobin and glyco-myoglobin. See FIG. 6, Panel A. FIG. 6, Panel A illustrates binding of a GlcNAc-specific lectin, Banderiraea simplicifolia II (BSII), to wild-type myoglobin and glycomyoglobin. A405 values are shown for wild-type myoglobin, glycomyoglobin, and negative control (no lectin added). Gly4→Compound A mutant myoglobin (200 ng) and wild type myoglobin (200 ng) were immobilized in microtiter plate wells and subsequently incubated with biotinylated BSII and streptavidin-alkaline phosphatase conjugate. Wells were incubated with p-nitrophenyl phosphate and monitored by measuring the absorbance at 405 nm. The two forms of myoglobin were immobilized in microtiter plate wells and then incubated with biotinylated BSII, streptavidin-alkaline phosphatase conjugate, and p-nitrophenyl phosphate, respectively.
(§1) Expression and characterization of mutant myoglobin. […] Proteins were analyzed by 12% SDS-PAGE and silver-stained. […]

[3] = biological target: T1, bovine milk galactosyltransferase (Bos taurus, UniProt P08037); assay: on-blot galactosyltransferase labeling with UDP-[H^3]galactose; type: biochemical; conditions: 1 μg protein on PVD membrane, 24 hours at room temperature
T1 construct: from tissue; host or cells: bovine milk
T1 sequence (P08037 79-402 limits assumed): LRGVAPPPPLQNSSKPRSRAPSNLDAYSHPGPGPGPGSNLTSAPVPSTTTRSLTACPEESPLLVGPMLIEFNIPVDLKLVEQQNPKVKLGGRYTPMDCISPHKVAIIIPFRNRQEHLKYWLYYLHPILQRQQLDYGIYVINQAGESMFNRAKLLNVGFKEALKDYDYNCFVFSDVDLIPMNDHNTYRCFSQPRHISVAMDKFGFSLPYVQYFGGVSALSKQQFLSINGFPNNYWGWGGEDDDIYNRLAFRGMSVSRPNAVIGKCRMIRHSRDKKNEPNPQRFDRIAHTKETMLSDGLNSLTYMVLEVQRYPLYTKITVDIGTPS
Source text: We also investigated whether the O-GlcNAc-serine residue in myoglobin could be selectively modified with a galactosyltransferase. Beta-1,4-galactosyltransferase is known to transfer galactose (Gal) from the sugar nucleotide UDP-Gal to the 4 position of an N-acetylglucosamine (GlcNAc) to form Galβ1,4GlcNAc. To determine if the O-glycosylated myoglobin can be modified with UDP-Gal, both wild-type and O-glycosylated myoglobin were resolved by SDS-PAGE and transferred to a PVD membrane. The membrane was then incubated with bovine milk galactosyltransferase and radioactive UDP-[H^3]-galactose at room temperature for 24 hours. See, e.g., K. Kamemura, et al., (2002), J. Biol. Chem. 277:19229. Incorporation of [H^3]-Gal was monitored by exposing the membrane to X-ray film. […] See FIG. 6, Panel B. FIG. 6, Panel B illustrates on-blot galactosyltransferase labeling glycomyoglobin with UDP-[H^3]galactose. Wild type myoglobin (1 μg) and Gly4→Compound A mutant myoglobin (1 μg) were resolved by 12% SDS-PAGE and transferred to a PVD membrane. The membrane was then treated with bovine milk galactosyltransferase (1 U), UDP-[H^3]galactose (0.5 μCi) and calf intestinal alkaline phosphatase (1 U) for 24 hours at room temperature. […]
as §1

Row | Compound | effect on growth rate of cells [1] | lectin binding signal (A405) [2] | incorporation of [H^3]-Gal (X-ray film) [3]
1 | CC(=O)c1ccc(CC(N)C(=O)O)cc1 (racemic) [p-acetyl-(±)-phenylalanine] | did not affect the growth rate of cells | – | –
2 | wild-type myoglobin: wild-type myoglobin used for comparison | – | signal equivalent to negative control wells | no detectable signal
